Measurements taken from ChEMBL document CHEMBL3421620, “A facile synthesis of novel miconazole analogues and the evaluation of their antifungal activity” (2015).

Legend:
Type in all cases: functional
Candida albicans [1] = assay: Antifungal activity against Candida albicans Strain 19 by broth microdilution method
Candida albicans [2] = assay: Antifungal activity against Candida albicans Strain 6 by broth microdilution method
Candida tropicalis = assay: Antifungal activity against Candida tropicalis ATCC 13803 by broth microdilution method
Candida albicans [3] = assay: Antifungal activity against Candida albicans Strain 24 by broth microdilution method
Candida albicans [4] = assay: Antifungal activity against Candida albicans ATCC 10231 by broth microdilution method
Candida albicans [5] = assay: Antifungal activity against Candida albicans Strain 21 by broth microdilution method
Candida albicans [6] = assay: Antifungal activity against Candida albicans Strain 13 by broth microdilution method
Candida albicans [7] = assay: Antifungal activity against Candida albicans Strain 8 by broth microdilution method
Candida albicans [8] = assay: Antifungal activity against Candida albicans Strain 3 by broth microdilution method
Nakaseomyces glabratus = assay: Antifungal activity against Candida glabrata by broth microdilution method
Candida albicans [9] = assay: Antifungal activity against Candida albicans Strain 12 by broth microdilution method
Candida albicans [10] = assay: Antifungal activity against Candida albicans Strain 29 by broth microdilution method
Candida albicans [11] = assay: Antifungal activity against Candida albicans Strain 18 by broth microdilution method
Candida albicans [12] = assay: Antifungal activity against Candida albicans Strain 22 by broth microdilution method
Candida albicans [13] = assay: Antifungal activity against Candida albicans Strain 9 by broth microdilution method
Candida albicans [14] = assay: Antifungal activity against Candida albicans Strain 27 by broth microdilution method
Candida albicans [15] = assay: Antifungal activity against Candida albicans Strain 5 by broth microdilution method
Candida albicans [16] = assay: Antifungal activity against Candida albicans Strain 10 by broth microdilution method
Candida albicans [17] = assay: Antifungal activity against Candida albicans Strain 7 by broth microdilution method
Candida albicans [18] = assay: Antifungal activity against Candida albicans Strain 28 by broth microdilution method
Candida albicans [19] = assay: Antifungal activity against Candida albicans Strain 20 by broth microdilution method
Candida albicans [20] = assay: Antifungal activity against Candida albicans Strain 2 by broth microdilution method
Rhizopus arrhizus = assay: Antifungal activity against Rhizopus oryzae ATCC 10329 by broth microdilution method
Candida albicans [21] = assay: Antifungal activity against Candida albicans Strain 14 by broth microdilution method
Candida albicans [22] = assay: Antifungal activity against Candida albicans Strain 23 by broth microdilution method
Yarrowia lipolytica = assay: Antifungal activity against Candida lipolytica by broth microdilution method
Candida albicans [23] = assay: Antifungal activity against Candida albicans Strain 16 by broth microdilution method
Candida albicans [24] = assay: Antifungal activity against Candida albicans Strain 25 by broth microdilution method
Aspergillus fumigatus = assay: Antifungal activity against Aspergillus fumigatus 16907 by broth microdilution method
[25] = Antifungal activity against Trichosporon cutaneum ATCC 28592 by broth microdilution method; settings: Cutaneotrichosporon cutaneum
Pichia kudriavzevii = assay: Antifungal activity against Candida krusei by broth microdilution method
Candida parapsilosis = assay: Antifungal activity against Candida parapsilosis by broth microdilution method; settings: Lodderomyces parapsilosis
Candida albicans [26] = assay: Antifungal activity against Candida albicans Strain 17 by broth microdilution method
Cyberlindnera jadinii = assay: Antifungal activity against Candida utilis ATCC 9226 by broth microdilution method; settings: Williopsis jadinii
Candida albicans [27] = assay: Antifungal activity against Candida albicans Strain 1 by broth microdilution method
Candida albicans [28] = assay: Antifungal activity against Candida albicans Strain 15 by broth microdilution method
Kluyveromyces marxianus = assay: Antifungal activity against Candida pseudotropicalis by broth microdilution method
Candida albicans [29] = assay: Antifungal activity against Candida albicans Strain 11 by broth microdilution method
Mucor hiemalis = assay: Antifungal activity against Mucor hiemalis ATCC 8690 by broth microdilution method
Candida albicans [30] = assay: Antifungal activity against Candida albicans Strain 26 by broth microdilution method
Candida albicans [31] = assay: Antifungal activity against Candida albicans Strain 4 by broth microdilution method

Measured: MIC

COC(=O)c1ccc(COC(Cn2ccnc2)c2ccc(Cl)cc2Cl)cc1 (stereo not given)
0.5 µg/mL: Kluyveromyces marxianus
> 16 µg/mL: Rhizopus arrhizus | Mucor hiemalis
0.06 µg/mL: Candida albicans [2] | Candida albicans [4] | Candida albicans [6] | Candida albicans [11] | Candida albicans [12] | Candida albicans [14] | Candida albicans [21] | Candida albicans [22]
0.25 µg/mL: Nakaseomyces glabratus | Candida albicans [10] | Candida albicans [13] | Cyberlindnera jadinii
4 µg/mL: Aspergillus fumigatus
8 µg/mL: [25]
0.12 µg/mL: all other assays above

OCc1ccc(COC(Cn2ccnc2)c2ccc(Cl)cc2Cl)cc1 (stereo not given)
0.06 µg/mL: Candida albicans [11] | Candida albicans [19]
1 µg/mL: Pichia kudriavzevii | Candida parapsilosis
0.25 µg/mL: Candida albicans [5] | Candida albicans [22] | Yarrowia lipolytica | Candida albicans [28] | Candida albicans [29] | Candida albicans [30]
0.5 µg/mL: Candida tropicalis | Nakaseomyces glabratus | Candida albicans [10] | Candida albicans [13] | Cyberlindnera jadinii | Kluyveromyces marxianus
> 16 µg/mL: Rhizopus arrhizus | Mucor hiemalis
4 µg/mL: Aspergillus fumigatus
16 µg/mL: [25]
0.12 µg/mL: all other assays above

COc1ccc(CCOC(Cn2ccnc2)c2ccc(Cl)cc2Cl)cc1OC (stereo not given)
4 µg/mL: Aspergillus fumigatus
0.12 µg/mL: Candida albicans [1] | Candida albicans [2] | Candida albicans [4] | Candida albicans [7] | Candida albicans [8] | Candida albicans [12] | Candida albicans [19] | Candida albicans [22] | Candida albicans [23]
0.06 µg/mL: Candida albicans [11] | Candida albicans [31]
0.25 µg/mL: Candida albicans [14] | Candida albicans [18]
1 µg/mL: Candida tropicalis | Cyberlindnera jadinii | Kluyveromyces marxianus
> 16 µg/mL: Rhizopus arrhizus | Mucor hiemalis
2 µg/mL: Pichia kudriavzevii | Candida parapsilosis
16 µg/mL: [25]
0.5 µg/mL: all other assays above

O=C(O)C(OC(Cn1ccnc1)c1ccc(Cl)cc1Cl)c1ccccc1Cl (stereo not given)
0.5 µg/mL: Candida tropicalis | Candida albicans [5] | Candida albicans [7] | Candida albicans [10] | Candida albicans [13] | Candida albicans [18] | Pichia kudriavzevii | Cyberlindnera jadinii | Candida albicans [28]
8 µg/mL: Aspergillus fumigatus
0.06 µg/mL: Candida albicans [4]
1 µg/mL: Nakaseomyces glabratus | Yarrowia lipolytica | Candida parapsilosis | Kluyveromyces marxianus
> 16 µg/mL: Rhizopus arrhizus | [25] | Mucor hiemalis
0.12 µg/mL: Candida albicans [2] | Candida albicans [3] | Candida albicans [8] | Candida albicans [11] | Candida albicans [12] | Candida albicans [19] | Candida albicans [21] | Candida albicans [22]
0.25 µg/mL: all other assays above

CCC(C)n1ncn(-c2ccc(N3CCN(c4ccc(OCC5COC(Cn6cncn6)(c6ccc(Cl)cc6Cl)O5)cc4)CC3)cc2)c1=O (stereo not given) [ITRACONAZOLE]
8 µg/mL: [25]
0.03 µg/mL: Candida albicans [3] | Candida albicans [7] | Candida albicans [8] | Candida albicans [11] | Candida albicans [12] | Candida albicans [18] | Candida albicans [31]
1 µg/mL: Aspergillus fumigatus | Pichia kudriavzevii
0.12 µg/mL: Candida albicans [5] | Candida albicans [9] | Candida albicans [10] | Candida albicans [13] | Yarrowia lipolytica | Candida albicans [24] | Candida albicans [26] | Candida albicans [30]
0.5 µg/mL: Cyberlindnera jadinii
> 16 µg/mL: Rhizopus arrhizus | Mucor hiemalis
0.25 µg/mL: Nakaseomyces glabratus | Candida parapsilosis | Kluyveromyces marxianus
0.06 µg/mL: all other assays above
